Laboratory results from paper PMC9157788, “Design, Synthesis, and Apoptosis-Promoting Effect Evaluation of Rhopaladins’ Analog 4-Arylidene-5-Oxopyrrolidine Derivatives” (Frontiers in Chemistry, 2022).

Tests used:
HepG2 cells [1] = test: MTT cell viability assay, HepG2; type: cell-based; conditions: Homo sapiens, 48 h, read-out: Half inhibitory concentration (IC50), HepG2
Experimental: (§1) HepG2 (human epidermoid hepatocellular carcinoma cell), 7402 (human epidermoid hepatocellular carcinoma cell), C-33A (human epidermoid cervical carcinoma cell), and HeLa (human epidermoid cervical adenocarcinoma cell) were incubated in Dulbecco’s modified Eagle’s medium (DMEM), which was purchased from Gibco (Grand Island, NY, United States). SiHa cells (human epidermoid cervical squamous cell carcinoma) were incubated in minimum essential medium (MEM, also from Gibco). CaSki (human epidermoid cervical carcinoma cell) and LO2 (human normal liver cell) were incubated in minimum essential medium (MEM, also from Gibco). All cells were maintained at 37°C in a humidified incubator with 5% carbon dioxide, and the media contained 10% fetal bovine serum (FBS, Corning, United States) and 1% penicillin–streptomycin antibiotic solution (Corning, United States). SiHa and CaSki were bought from the China Center for Type Culture Collection (CCTCC). The other five types of cancer cell lines were obtained from the Experiment Center of Medicine, Sinopharm Dongfeng Hospital, Hubei University of Medicine. The compounds were dissolved in dimethyl sulfoxide (DMSO, MP Biomedicals, United States), and cisplatin was purchased from Aladdin, Shanghai, China. The control (0 μM) group was treated with DMSO only in the same conditions, and the DMSO content in the medium was less than 0.1%.
(§2) Cell viability was measured by a 3-(4,5-dimethylthiazol-2-yl)-2,5-diphenyltetrazolium bromide (MTT, MultiSciences, China) assay. The specific experimental steps referred to our previous research ([Zhu et al., 2020]). For each cell line, cells were digested and seeded in 96-well plates at a density of 1 × 10^3 cells/well. […] Then, the formed formazan crystals were dissolved in DMSO, and the plates were estimated in a […] microplate reader (BioTek Inc., Bio-Tek MQX200) at a wavelength of 490 nm. Optical density (OD) values were obtained, and the inhibition rate and IC50 of each compound on different cells were calculated by GraphPad Prism 8.0.1 software. […]

CaSki cells = test: MTT cell viability assay, CaSki; type: cell-based; conditions: Homo sapiens, Ca-Ski, 48 h, read-out: Half inhibitory concentration (IC50), CaSki
Experimental: as §1, §2

Bcl-2 [2] = test: Western blot, Bcl-2 expression in 7402 cells; type: cell-based, human; conditions: 7402, 25 μM, 48 h, vs DMSO control, p < 0.01
Experimental: (§3) The experimental steps of the Western blotting assay referred to Lin’s study ([Lin et al., 2020]). After treatment with different concentrations of RPDPRH (0, 6.25, 12.5, and 25 μM) for 48 h, hepatocarcinoma cells were lysed with an ice-cold RIPA protein lysis buffer (Beyotime, China). Total cell lysates were prepared with RIPA lysis buffer containing phosphatase inhibitors (Roche, China) and protease inhibitors (MedChemExpress, United States). Total cell lysates were centrifuged at 10,000 g for 10 min at 4°C to obtain the supernatant. The protein concentration was detected according to the BCA Protein Assay Kit (Beyotime, China). Then, 5× SDS loading buffer (Beyotime, China) was added to the supernatant and boiled at 100°C for 10 min. The obtained protein samples were stored at −80°C.
(§4) The protein samples (20 μg) were resolved on 4% concentration glue and 12% separating glue and prepared according to the SDS-PAGE Gel Quick Preparation Kit procedure (Beyotime, China). After electrophoresis at 80 V for 1.5–2 h, the proteins were wet-transferred onto a polyvinylidene difluoride membrane (PVDF, Millipore) at 300 mA for 1–1.5 h. […]

HeLa cells = test: MTT cell viability assay, HeLa; type: cell-based; conditions: Homo sapiens, 48 h, read-out: Half inhibitory concentration (IC50), HeLa
Experimental: as §1, §2

HepG2 cells [3] = test: Wound healing assay, HepG2; type: cell-based, human; conditions: 48 h
Experimental: The experimental procedures were performed according to conventional methods ([Kovaříková et al., 2014]). Hepatocarcinoma cells at the logarithmic growth stage were taken and inoculated into six-well plates with 2 × 10^4 cells/well. When the cell density is about 80%, the cell wound was scratched with pipette tips. Cells were then washed with PBS and added to the cell culture broth containing 1% serum with varying concentrations of RPDPRH (0 μM, 6.25, 12.5, and 25 μM) for 48 h. Pictures were taken at 0 and 48 h under a microscope (100×). Wound healing rate (%) = [(0 h scratch distance−48 h scratch distance)/0 h scratch distance] × 100%.

Bcl-2 [4] = test: Western blot, Bcl-2 expression in HepG2 cells; type: cell-based, human; conditions: HepG2, 25 μM, 48 h, vs DMSO control, p < 0.01
Experimental: as §3, §4

7402 cells = test: MTT cell viability assay, 7402; type: cell-based; conditions: Homo sapiens, 48 h, read-out: Half inhibitory concentration (IC50), 7402
Experimental: as §1, §2

Bax [5] = test: Western blot, Bax expression in HepG2 cells; type: cell-based, human; conditions: HepG2, 25 μM, 48 h, vs DMSO control
Experimental: as §3, §4

Bax [6] = test: Western blot, Bax expression in 7402 cells; type: cell-based, human; conditions: 7402, 25 μM, 48 h, vs DMSO control
Experimental: as §3, §4

Question: Which results are given for `O=C1/C(=C/c2ccc(Cl)cc2)CC(/C=C/c2ccc(Cl)cc2)(C(=O)NC2CCCCC2)N1c1ccc(F)cc1` (stereo not drawn) [RPDPRH, (2E, 4E)-4-(4-chlorobenzylidene)-2-(4-chlorostyryl)-N-cyclohexyl-1-(4-fluorophenyl)-5-oxopyrrolidine-2-carboxamide]?
Answer: IC50 (HepG2 cells [1]): 12.4 µM; IC50 (CaSki cells): 6.42 µM; expression of anti-apoptotic protein Bcl-2 (Bcl-2 [2]): decrease; IC50 (HeLa cells): 15.2 µM; wound healing rate (HepG2 cells [3]; HepG2, 25 μM, vs DMSO control, p < 0.001): significantly decreased; wound healing rate (HepG2 cells [3]; HepG2, 6.25, 12.5 and 25 μM): significantly reduced; expression of anti-apoptotic protein Bcl-2 (Bcl-2 [4]): decrease; IC50 (7402 cells): 22.4 µM; ratio of Bax/Bcl-2 (Bax [5]): increase obviously; expression of pro-apoptotic protein Bax (Bax [5]; p < 0.05): significant increase; ratio of Bax/Bcl-2 (Bax [6]): increase obviously; expression of pro-apoptotic protein Bax (Bax [6]; p < 0.05): significant increase
